# Assay results from patent publication US20230085307A1, “PYRIDAZINONE COMPOUND AND HERBICIDE” (NISSAN CHEMICAL CORPORATION, priority 2019, published 2023).
# How the values were obtained:
# Italian ryegrass [1] = experiment: Test Example 5: herbicidal effect by foliage application, plastic box (Table 20, symbol K); assay type: in vivo, Italian ryegrass (Lolium multiflorum); conditions: foliage application, 221 g/ha, evaluated three weeks after application
# Procedure, shortened: (§1)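 Foliar spray test: emulsion formulation diluted in water to a set application rate, sprayed onto 14-day-old plants raised in diluvial soil at 25° C to 30° C under glass. Both herbicidal effect and crop effect rated visually three weeks later.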
# velvetleaf [2] = experiment: Test Example 4: herbicidal effect by soil treatment (Table 19, symbol M); assay type: in vivo, velvetleaf (Abutilon theophrasti); conditions: amount of applied herbicide 221 g/ha
# Procedure, shortened: (§2)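 Step 1: sow seeds in sterilized diluvial soil, cover ~1.5 cm. Step 2: spray diluted emulsion onto soil surface at predetermined rate. Step 3: greenhouse, 25–30° C, three weeks. Step 4: grade effect on each plant by earlier criteria.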
# lambsquarters [3] = experiment: Test Example 4: herbicidal effect by soil treatment (Table 19, symbol O); assay type: in vivo, lambsquarters (Chenopodium album); conditions: amount of applied herbicide 221 g/ha
# Procedure, shortened: as §2
# persian speedwell [4] = experiment: Test Example 4: herbicidal effect by soil treatment (Table 19, symbol R); assay type: in vivo, Persian speedwell (Veronica persica); conditions: amount of applied herbicide 221 g/ha
# Procedure, shortened: as §2
# wild oat [5] = experiment: Test Example 5: herbicidal effect by foliage application, plastic box (Table 20, symbol I); assay type: in vivo, wild oat (Avena fatua); conditions: foliage application, 221 g/ha, evaluated three weeks after application
# Procedure, shortened: as §1
# persian speedwell [6] = experiment: Test Example 5: herbicidal effect by foliage application, plastic box (Table 20, symbol R); assay type: in vivo, Persian speedwell (Veronica persica); conditions: foliage application, 221 g/ha, evaluated three weeks after application
# Procedure, shortened: as §1
# windgrass [7] = experiment: Test Example 4: herbicidal effect by soil treatment (Table 19, symbol L); assay type: in vivo, windgrass (Apera spica-venti); conditions: amount of applied herbicide 221 g/ha
# Procedure, shortened: as §2
# barnyard grass [8] = experiment: Test Example 4: herbicidal effect by soil treatment (Table 19, symbol H); assay type: in vivo, barnyard grass (Echinochloa crus-galli); conditions: amount of applied herbicide 221 g/ha
# Procedure, shortened: as §2
# chickweed [9] = experiment: Test Example 5: herbicidal effect by foliage application, plastic box (Table 20, symbol P); assay type: in vivo, common chickweed (Stellaria media); conditions: foliage application, 221 g/ha, evaluated three weeks after application
# Procedure, shortened: as §1
# wild oat [10] = experiment: Test Example 4: herbicidal effect by soil treatment (Table 19, symbol I); assay type: in vivo, wild oat (Avena fatua); conditions: amount of applied herbicide 221 g/ha
# Procedure, shortened: as §2
# Italian ryegrass [11] = experiment: Test Example 4: herbicidal effect by soil treatment (Table 19, symbol K); assay type: in vivo, Italian ryegrass (Lolium multiflorum); conditions: amount of applied herbicide 221 g/ha
# Procedure, shortened: as §2
# windgrass [12] = experiment: Test Example 5: herbicidal effect by foliage application, plastic box (Table 20, symbol L); assay type: in vivo, windgrass (Apera spica-venti); conditions: foliage application, 221 g/ha, evaluated three weeks after application
# Procedure, shortened: as §1
# green foxtail [13] = experiment: Test Example 5: herbicidal effect by foliage application, plastic box (Table 20, symbol G); assay type: in vivo, green foxtail (Setaria viridis); conditions: foliage application, 221 g/ha, evaluated three weeks after application
# Procedure, shortened: as §1
# southern crabgrass [14] = experiment: Test Example 4: herbicidal effect by soil treatment (Table 19, symbol F); assay type: in vivo, southern crabgrass (Digitaria ciliaris); conditions: amount of applied herbicide 221 g/ha
# Procedure, shortened: as §2
# rice flat sedge = experiment: Test Example 3: herbicidal effect by foliage application, Wagner pot (Table 18, symbol E); assay type: in vivo, rice flat sedge (Cyperus iria); conditions: amount of applied herbicide 221 g/ha
# Procedure, shortened: (§3)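 Plants were sown in alluvial soil held under 0.1–0.5 cm standing water and grown 14 days in a greenhouse at 25–30 °C. An emulsifiable formulation, water-diluted to the set dose, was then sprayed onto the foliage, and effects were scored three weeks later using previously defined criteria.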
# redroot pigweed [15] = experiment: Test Example 4: herbicidal effect by soil treatment (Table 19, symbol N); assay type: in vivo, redroot pigweed (Amaranthus retroflexus); conditions: amount of applied herbicide 221 g/ha
# Procedure, shortened: as §2
# velvetleaf [16] = experiment: Test Example 5: herbicidal effect by foliage application, plastic box (Table 20, symbol M); assay type: in vivo, velvetleaf (Abutilon theophrasti); conditions: foliage application, 221 g/ha, evaluated three weeks after application
# Procedure, shortened: as §1
# barnyard grass [17] = experiment: Test Example 5: herbicidal effect by foliage application, plastic box (Table 20, symbol H); assay type: in vivo, barnyard grass (Echinochloa crus-galli); conditions: foliage application, 221 g/ha, evaluated three weeks after application
# Procedure, shortened: as §1
# blackgrass [18] = experiment: Test Example 5: herbicidal effect by foliage application, plastic box (Table 20, symbol J); assay type: in vivo, blackgrass (Alopecurus myosuroides); conditions: foliage application, 221 g/ha, evaluated three weeks after application
# Procedure, shortened: as §1
# lambsquarters [19] = experiment: Test Example 5: herbicidal effect by foliage application, plastic box (Table 20, symbol O); assay type: in vivo, lambsquarters (Chenopodium album); conditions: foliage application, 221 g/ha, evaluated three weeks after application
# Procedure, shortened: as §1
# chickweed [20] = experiment: Test Example 4: herbicidal effect by soil treatment (Table 19, symbol P); assay type: in vivo, common chickweed (Stellaria media); conditions: amount of applied herbicide 221 g/ha
# Procedure, shortened: as §2
# blackgrass [21] = experiment: Test Example 4: herbicidal effect by soil treatment (Table 19, symbol J); assay type: in vivo, blackgrass (Alopecurus myosuroides); conditions: amount of applied herbicide 221 g/ha
# Procedure, shortened: as §2
# Chinese sprangletop = experiment: Test Example 3: herbicidal effect by foliage application, Wagner pot (Table 18, symbol D); assay type: in vivo, chinese sprangletop (Leptochloa chinensis); conditions: amount of applied herbicide 221 g/ha
# Procedure, shortened: as §3
# barnyard grass [22] = experiment: Test Example 3: herbicidal effect by foliage application, Wagner pot (Table 18, symbol H); assay type: in vivo, barnyard grass (Echinochloa crus-galli); conditions: amount of applied herbicide 221 g/ha
# Procedure, shortened: as §3
# green foxtail [23] = experiment: Test Example 4: herbicidal effect by soil treatment (Table 19, symbol G); assay type: in vivo, green foxtail (Setaria viridis); conditions: amount of applied herbicide 221 g/ha
# Procedure, shortened: as §2
# redroot pigweed [24] = experiment: Test Example 5: herbicidal effect by foliage application, plastic box (Table 20, symbol N); assay type: in vivo, redroot pigweed (Amaranthus retroflexus); conditions: foliage application, 221 g/ha, evaluated three weeks after application
# Procedure, shortened: as §1
# southern crabgrass [25] = experiment: Test Example 5: herbicidal effect by foliage application, plastic box (Table 20, symbol F); assay type: in vivo, southern crabgrass (Digitaria ciliaris); conditions: foliage application, 221 g/ha, evaluated three weeks after application
# Procedure, shortened: as §1
structure (smiles),measurement,setting,value
Cc1ccc2sc(-c3ccc(C#N)cc3)c(-c3c(O)c(C)nn(C)c3=O)c2c1 [2-146],herbicidal effect on K: Italian ryegrass (criteria 0-5),Italian ryegrass [1],4 (Herbicidal rate of 70% or more and less than 90%)
same,"M: velvetleaf, herbicidal effect rating",velvetleaf [2],0 (Herbicidal rate of 5% or less (almost no effect))
same,"O: lambsquarters, herbicidal effect rating",lambsquarters [3],0 (Herbicidal rate of 5% or less (almost no effect))
same,"R: persian speedwell, herbicidal effect rating",persian speedwell [4],5 (Herbicidal rate of 90% or more (almost completely withered))
same,herbicidal effect on I: wild oat (criteria 0-5),wild oat [5],3 (Herbicidal rate of 40% or more and less than 70%)
same,herbicidal effect on R: persian speedwell (criteria 0-5),persian speedwell [6],5 (Herbicidal rate of 90% or more (almost completely withered))
same,"L: windgrass, herbicidal effect rating",windgrass [7],0 (Herbicidal rate of 5% or less (almost no effect))
same,"H: barnyard grass, herbicidal effect rating",barnyard grass [8],0 (Herbicidal rate of 5% or less (almost no effect))
same,herbicidal effect on P: chickweed (criteria 0-5),chickweed [9],5 (Herbicidal rate of 90% or more (almost completely withered))
same,"I: wild oat, herbicidal effect rating",wild oat [10],0 (Herbicidal rate of 5% or less (almost no effect))
same,"K: Italian ryegrass, herbicidal effect rating",Italian ryegrass [11],0 (Herbicidal rate of 5% or less (almost no effect))
same,herbicidal effect on L: windgrass (criteria 0-5),windgrass [12],0 (Herbicidal rate of 5% or less (almost no effect))
same,herbicidal effect on G: green foxtail (criteria 0-5),green foxtail [13],4 (Herbicidal rate of 70% or more and less than 90%)
same,"F: southern crabgrass, herbicidal effect rating",southern crabgrass [14],0 (Herbicidal rate of 5% or less (almost no effect))
same,herbicidal effect on E: rice flat sedge,rice flat sedge,3 (Herbicidal rate of 40% or more and less than 70%)
same,"N: redroot pigweed, herbicidal effect rating",redroot pigweed [15],4 (Herbicidal rate of 70% or more and less than 90%)
same,herbicidal effect on M: velvetleaf (criteria 0-5),velvetleaf [16],2 (Herbicidal rate of 20% or more and less than 40%)
same,herbicidal effect on H: barnyard grass (criteria 0-5),barnyard grass [17],4 (Herbicidal rate of 70% or more and less than 90%)
same,herbicidal effect on J: blackgrass (criteria 0-5),blackgrass [18],3 (Herbicidal rate of 40% or more and less than 70%)
same,herbicidal effect on O: lambsquarters (criteria 0-5),lambsquarters [19],3 (Herbicidal rate of 40% or more and less than 70%)
same,"P: chickweed, herbicidal effect rating",chickweed [20],5 (Herbicidal rate of 90% or more (almost completely withered))
same,"J: blackgrass, herbicidal effect rating",blackgrass [21],0 (Herbicidal rate of 5% or less (almost no effect))
same,herbicidal effect on D: Chinese sprangletop,Chinese sprangletop,0 (Herbicidal rate of 5% or less (almost no effect))
same,herbicidal effect on H: barnyard grass,barnyard grass [22],4 (Herbicidal rate of 70% or more and less than 90%)
same,"G: green foxtail, herbicidal effect rating",green foxtail [23],0 (Herbicidal rate of 5% or less (almost no effect))
same,herbicidal effect on N: redroot pigweed (criteria 0-5),redroot pigweed [24],5 (Herbicidal rate of 90% or more (almost completely withered))
same,herbicidal effect on F: southern crabgrass (criteria 0-5),southern crabgrass [25],0 (Herbicidal rate of 5% or less (almost no effect))
